Literature values, collected in publication PMC9729070 (Bioorganic & medicinal chemistry letters, 2022).

What was measured:
[1] = Phase I clinical trials
[2] = CRPC patients

O=C(Nc1ccc([N+](=O)[O-])cc1Cl)c1cc(Cl)ccc1O [Niclosamide (1), Niclosamide]
bioavailability [1]: unacceptable bioavailability

CNC(=O)c1ccc(N2C(=S)N(c3ccc(C#N)c(C(F)(F)F)c3)C(=O)C2(C)C)cc1F [enzalutamide (Xtandi), enzalutamide]
survival time prolongation [2]: five
